Patent US9839669B2 (priority 2011, dated 2017)
Where two headings read alike, the source gives them in different places.

How the values were obtained:
HSV-1 = type: cell-based, Herpes simplex viruses type 1; conditions: Aciclovir 1.5 mmol

Question: `Nc1nc2c(ncn2COCCO)c(=O)[nH]1` [Aciclovir] was tested. Which Average relative inhibition (HSV-1; average over virus dilutions) did it give?
Answer: 100

Question: And the “Number of plaque, Mean value” (HSV-1; virus dilution 10^−5.0)?
Answer: 0

Question: What about the Relative infectiosity (HSV-1; virus dilution 10^−5.0) of the same compound?
Answer: 0

Question: And the Relative inhibition (HSV-1; virus dilution 10^−5.0)?
Answer: 100

Question: And the “Number of plaque, Mean value” (HSV-1; virus dilution 10^−5.48)?
Answer: 0

Question: And the Relative infectiosity (HSV-1; virus dilution 10^−5.48)?
Answer: 0

Question: And the Relative inhibition (HSV-1; virus dilution 10^−5.48)?
Answer: 100

Question: What about the “Number of plaque, Mean value” (HSV-1; virus dilution 10^−5.95) of the same compound?
Answer: 0

Question: What about the Relative infectiosity (HSV-1; virus dilution 10^−5.95) of the same compound?
Answer: 0

Question: And the Relative inhibition (HSV-1; virus dilution 10^−5.95)?
Answer: 100

Question: What about the cytotoxicity (Vero cells) of the same compound?
Answer: negative

Question: What about the cytotoxicity (BGM cells) of the same compound?
Answer: negative
